This passage reports IC50 results from US20220073536A1 (Rigel Pharmaceuticals, Inc., priority 2003, published 2022).

Where a name gives a salt, the structure may show the parent alone.

Assay [1] deals with cultured human mast cells (CHMC). Kind of assay: CHMC low cell density IgE activation: tryptase assay. Type of assay: cell-based. The settings on record: IgE activation. In short, it runs like this: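 CHMC were seeded at 1000–1500 cells/well in MT buffer and incubated 1 hr at 37 °C. They were then stimulated with anti-IgE for 30 min at 37 °C, with unstimulated wells as controls. Released tryptase in the supernatant was measured with a fluorogenic substrate after 30 min at room temperature.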

Assay [2] shares this test system. Kind of assay: CHMC low cell density ionomycin activation: tryptase assay. In kind it is cell-based. The note with it: read-out: LD Tryptase, CHMC, Iono, 3 pt.
Where [3] appears, read: Homo sapiens, Mast cell, low cell density CHMC, tryptase release, 3 pt, read-out: LD Tryptase, CHMC, IgE, 3 pt.
Where [4] appears, read: Homo sapiens, Mast cell, low cell density CHMC, tryptase release, 3 pt.
Setting [5] is: Homo sapiens, Mast cell, low cell density CHMC, tryptase release, 3 point, read-out: LD Tryptase, CHMC, IgE, 3 pt.
[6] abbreviates: Homo sapiens, Mast cell, low cell density CHMC, tryptase release, 3 point.
Where [7] appears, read: Homo sapiens, Mast cell, low cell density CHMC, tryptase release, 8 pt, read-out: LD Tryptase, CHMC, IgE, 8 pt.
Where [8] appears, read: Homo sapiens, Mast cell, low cell density CHMC, tryptase, 3 pt, read-out: LD Tryptase, CHMC, IgE, 3 pt.
Where [9] appears, read: Homo sapiens, Mast cell, low cell density CHMC, tryptase, 3 pt.
[10] abbreviates: Homo sapiens, Mast cell, low cell density CHMC, tryptase, 8 pt, read-out: LD Tryptase, CHMC, IgE, 8 pt.
Setting [11] is: low cell density CHMC, tryptase release, 3 point, read-out: LD Tryptase, CHMC, IgE, 3 pt.
[12] abbreviates: low cell density CHMC, tryptase release, 3 point.
[13] abbreviates: low cell density CHMC, tryptase readout, 3 pt, read-out: LD Tryptase, CHMC, IgE, 3 pt.
The mark [14] stands for this setting: low cell density CHMC, tryptase readout, 8 pt, read-out: LD Tryptase, CHMC, IgE, 8 pt.
[15] abbreviates: low cell density CHMC, tryptase readout, 3 pt.
The mark [16] stands for this setting: Homo sapiens, Mast cell, low cell density CHMC, tryptase readout, 3 pt, read-out: LD Tryptase, CHMC, IgE, 3 pt.
Where [17] appears, read: Homo sapiens, Mast cell, low cell density CHMC, tryptase readout, 3 pt.
[18] abbreviates: Homo sapiens, Mast cell, low cell density CHMC, tryptase release, 8 point, read-out: LD Tryptase, CHMC, IgE, 8 pt.
Where [19] appears, read: Homo sapiens, Mast cell, low cell density, 3 pt, read-out: LD Tryptase, CHMC, IgE, 3 pt.
Where [20] appears, read: Homo sapiens, Mast cell, low cell density, 3 pt.

For `CN1C(=O)COc2ccc(Nc3nc(Nc4ccc(-c5ncco5)cc4)ncc3F)cc21` [Compound 245], the IC50 in assay [1] (setting [3]) and in assay [2] (setting [4]) was above 10 µM throughout.

`Cc1cc(C)cc(Nc2ncc(F)c(N(C)c3cc(C)c(Cl)c(C)c3)n2)c1` [Compound 592]: the IC50 in assay [1] (setting [5]) and in assay [2] (setting [6]) was above 10 µM throughout.

In the case of `CN(C)c1ncc(F)c(N(C)c2ccc3c(c2)OCCO3)n1` [Compound 462, N2-Dimethyl-N4-(3,4-ethylenedioxyphenyl)-5-fluoro-N4-methyl-2,4-pyrimidinediamine], the IC50 was above 10 µM in assay [1] (low cell density, 3 pt, read-out: LD Tryptase, CHMC, IgE, 3 pt) and above 10 µM in assay [2] (low cell density, 3 pt).

As for `O=C1Nc2cc(Nc3nc(Nc4cccc(-c5cnco5)c4)ncc3F)ccc2OC1CCO` (stereo not shown) [Compound 235], the IC50 is below 10 µM in assay [1] (setting [3]), below 10 µM in assay [1] (setting [7]) and above 10 µM in assay [2] (setting [4]).

`CCOC(=O)N1CCN(c2cccc(Nc3ncc(F)c(Nc4cc(C5CC5)n[nH]4)n3)c2)CC1` [Compound 1115]: the IC50 in assay [1] (setting [8]) and in assay [2] (setting [9]) was below 10 µM throughout.

For the molecule `Fc1cnc(Nc2cccc(N3CCOCC3)c2)nc1Nc1cc(C2CC2)n[nH]1` [Compound 1114], the IC50 is below 10 µM in assay [1] (setting [8]), below 10 µM in assay [1] (setting [10]) and above 10 µM in assay [2] (setting [9]).

For “N2- (3-Chloro-4-methoxyphenyl)-N4- (2,2-dimethyl-3-oxo-4H-benz[1,4]oxazin-6-yl)-5-fluoro-N4-methyl-2,4-pyrimidinediamine [Compound 394]”, the IC50 in assay [1] (low cell density CHMC, tryptase, 3 pt, read-out: LD Tryptase, CHMC, IgE, 3 pt) was below 10 µM; in assay [2] (low cell density CHMC, tryptase, 3 pt), below 10 µM.

As for `Fc1cnc(Nc2cccc(-c3ncco3)c2)nc1Nc1ccc2c(c1)OC(F)(F)C(F)(F)O2` [Compound 633], the IC50 in assay [1] (setting [11]) was below 10 µM; in assay [2] (setting [12]), above 10 µM.

Take `CC(C)n1ncc2ccc(Nc3ncc(F)c(Nc4ccc5c(n4)NC(=O)C(C)(C)O5)n3)cc21` [Compound 1050, N4-(2,2-Dimethyl-3-oxo-4H-5-pyrid[1,4]oxazin-6-yl)-N2-(1-isopropylindazol-6-yl)-5-fluoro-2,4-pyrimidinediamine]: the IC50 was below 10 µM in assay [1] (setting [13]), below 10 µM in assay [1] (setting [14]) and above 10 µM in assay [2] (setting [15]).

For the molecule `CC1(C)Oc2ccc(Nc3nc(Nc4ccc5cn[nH]c5c4)ncc3F)cc2NC1=O` [Compound 1047, N4-(2,2-Dimethyl-3-oxo-4H-benz[1,4]oxazin-6-yl)-5-fluoro-N2-(indazol-6-yl)-2,4-pyrimidinediamine Methanesulfonic Acid Salt], the IC50 in assay [1] (setting [16]) is above 10 µM; in assay [1] (Homo sapiens, Mast cell, low cell density CHMC, tryptase readout, 8 pt, read-out: LD Tryptase, CHMC, IgE, 8 pt), below 10 µM; in assay [2] (setting [17]) it was above 10 µM.

For `COC(=O)c1cc2cc(Nc3ncc(F)c(N(C)c4cc(C)c(Cl)c(C)c4)n3)ccc2o1` [Compound 595], the IC50 in assay [1] (setting [5]) and in assay [2] (setting [6]) was above 10 µM each time.

Turning to `COc1cc(Nc2ncc(F)c(N(C)c3cc(C)c(Cl)c(C)c3)n2)cc(OC)c1` [Compound 591], the IC50 in assay [1] (setting [5]) is below 10 µM; in assay [1] (setting [18]), below 10 µM; in assay [2] (setting [6]), above 10 µM.

`COCCn1ncc2cc(Nc3ncc(F)c(Nc4ccc(OC)c(Cl)c4)n3)ccc21` [Compound 772, N4-(3-Chloro-4-methoxyphenyl)-5-fluoro-N2-[1-(2-methoxyethyl)indazol-5-yl]-2,4-pyrimidinediamine]: the values for the IC50 in assay [1] (setting [3]), in assay [1] (setting [7]) and in assay [2] (setting [4]) were below 10 µM, below 10 µM and above 10 µM, respectively.

Turning to `CNC(=O)COc1cccc(Nc2ncc(F)c(Nc3ccc4c(c3)NCCS4)n2)c1` [Compound 258, N4-(3,4-Dihydro-2H,4H-benzo[1,4]thiazin-6-yl)-5-fluoro-N2-[3-(N-methylamino)carbonylmethyleneoxyphenyl]-2,4-pyrimidinediamine], the IC50 in assay [1] (low cell density CHMC, tryptase release, 3 pt, read-out: LD Tryptase, CHMC, IgE, 3 pt) was below 10 µM; in assay [1] (low cell density CHMC, tryptase release, 8 pt, read-out: LD Tryptase, CHMC, IgE, 8 pt) it was below 10 µM; in assay [2] (low cell density CHMC, tryptase release, 3 pt) it was above 10 µM.

Take `CC(=O)N1CCN(c2ccc(Nc3ncc(F)c(NC4CCCCC4)n3)cc2)CC1` [Compound 1163, N2-[4-(4-Acetylpiperazino)phenyl]-N4-cyclohexyl-5-fluoro-2,4-pyrimidinediamine]: the figures for the IC50 in assay [1] (setting [8]) and in assay [2] (setting [9]) were below 10 µM and above 10 µM, respectively.

As to `COc1ccc(N(C)c2nc(Nc3cccc(-c4cnco4)c3)ncc2F)cc1OC` [Compound 438, N4-(3,4-Dimethoxyphenyl)-5-fluoro-N4-methyl-N2-[3-(oxazol-5-yl)phenyl]-2,4-pyrimidinediamine], the figures for the IC50 in assay [1] (setting [8]), in assay [1] (setting [10]) and in assay [2] (setting [9]) were below 10 µM, below 10 µM and above 10 µM, respectively.

Consider `CNC(=O)c1ccc(Nc2ncc(F)c(Nc3ccc(OC)c(Cl)c3)n2)cc1Cl` [Compound 466], for which the IC50 in assay [1] (setting [19]) was below 10 µM; in assay [1] (Homo sapiens, Mast cell, low cell density, 8 pt, read-out: LD Tryptase, CHMC, IgE, 8 pt), below 10 µM; in assay [2] (setting [20]) it was above 10 µM.

For `CN1CCN(c2ccc(Nc3ncc(F)c(Nc4cccc(NC5=NCCN5)c4)n3)cc2)CC1` [Compound 1099, 5-Fluoro-N4-[3-(N-2-imidazolin-2-yl)aminophenyl]-N2-[4-(4-methylpiperazino)phenyl]-2,4-pyrimidinediamine], the IC50 in assay [1] (setting [16]) and in assay [2] (setting [17]) was above 10 µM throughout.

On to `CNC(=O)COc1cccc(Nc2ncc(F)c(Nc3ccc4c(n3)N(C)C(=O)C(C)(C)O4)n2)c1` [Compound 1015, 5-Fluoro-N2-[3-(N-methylamino)carbonylmethyleneoxyphenyl]-N4-[3-oxo-2,2,4-trimethyl-5-pyrid[1,4]oxazin-6-yl]-2,4-pyrimidinediamine], for which the IC50 in assay [1] (setting [13]) was below 10 µM; in assay [1] (setting [14]), below 10 µM; in assay [2] (setting [15]), above 10 µM.

In the case of `Cc1cc(N(C)c2nc(Nc3ccc4cc[nH]c4c3)ncc2F)cc(C)c1Cl` [Compound 599], the IC50 is below 10 µM in assay [1] (setting [5]) and above 10 µM in assay [2] (setting [6]).

`Cc1cc(N(C)c2nc(Cl)ncc2F)cc(C)c1Cl` [Compound 626]: the IC50 in assay [1] (setting [5]) was above 10 µM; in assay [2] (setting [6]), below 10 µM.

Consider `Cc1nc2ccc(Nc3ncc(F)c(Nc4ccc5c(n4)NC(=O)C(C)(C)O5)n3)cc2[nH]1` [Compound 845, N4-(2,2-Dimethyl-3-oxo-4H-5-pyrid[1,4]oxazin-6-yl)-5-fluoro-N2-(2-methyl-3H-benzimidazol-5-yl)-2,4-pyrimidinediamine], for which the IC50 in assay [1] (setting [7]) and in assay [2] (setting [4]) was below 10 µM throughout.

For the molecule `CN(c1nc(Nc2cccc(N3CCOCC3)c2)ncc1F)C1CCC1` [Compound 1149, N4-Cyclobutyl-5-fluoro-N4-methyl-N2-(3-morpholinophenyl)-2,4-pyrimidinediamine], the IC50 in assay [1] (setting [8]) was below 10 µM; in assay [2] (setting [9]) it was above 10 µM.

Take `CNC(=O)c1ccc(Nc2ncc(F)c(Nc3ccc(Cl)c(OC)c3)n2)cc1Cl` [Compound 611, N4-(4-Chloro-3-methoxyphenyl)-N2-[3-chloro-4-(N-methylamino)carbonylphenyl]-5-fluoro-2,4-pyrimidinediamine]: the IC50 is below 10 µM in assay [1] (setting [5]), below 10 µM in assay [1] (setting [18]) and above 10 µM in assay [2] (setting [6]).

Consider `COC(=O)CCNC(=O)c1ccc(Nc2ncc(F)c(Nc3ccc4c(c3)NC(=O)C(F)(F)O4)n2)cc1` [Compound 1304], for which the IC50 was below 10 µM in assay [1] (setting [8]), below 10 µM in assay [1] (setting [10]) and above 10 µM in assay [2] (setting [9]).

With `COC(=O)Cn1ccc2cc(Nc3ncc(F)c(Nc4ccc(OC)c(Cl)c4)n3)ccc21` [Compound 646, N4-(3-Chloro-4-methoxyphenyl)-5-fluoro-N2-[1-(methoxycarbonylmethylene)indol-5-yl]-2,4-pyrimidinediamine], the IC50 was below 10 µM in assay [1] (setting [11]); below 10 µM in assay [1] (low cell density CHMC, tryptase release, 8 point, read-out: LD Tryptase, CHMC, IgE, 8 pt); above 10 µM in assay [2] (setting [12]).

Take `CN(c1ccc2c(c1)OCCO2)c1nc(N)ncc1F` [Compound 487, N4-(3,4-Ethylenedioxyphenyl)-5-fluoro-N4-methyl-2,4-pyrimidinediamine]: the IC50 in assay [1] (setting [19]) and in assay [2] (setting [20]) was above 10 µM in each case.
